Converted amounts (≈) assume the structure as drawn.
Columns and labels:
C. difficile [1] = assay: In vitro susceptibility assay (MIC); conditions: Clostridioides difficile
C. difficile [2] = assay: Minimum bactericidal concentration (MBC) assay; conditions: for MBC: Clostridioides difficile
Caco-2 cells = assay: Cytotoxicity assay (MTS); assay type: cell-based, human; conditions: concentration up to 16 μg/ml, 24 hrs
Experimental: A cytotoxicity assay against Caco-2 cells was performed to assess the potential toxic effect of the natural products as described before. Caco-2 cells cultured in DMEM media supplemented with 10% FBS, 1% NEAA, and 1% penicillin/streptomycin were grown at 37°C in presence of 5% CO2. Following trypsinization, cells were seeded to 96-well plates and allowed to grow till cells in each well attained 100% confluence. Hit natural products were added to the cells at a starting concentration of 16 μg/ml whereas control wells received DMSO at the same concentration. The plates were incubated for 24 hrs. after which MTS reagent was added and absorbance was recorded at 490 nm using a SpectraMax i3Multi-Mode Microplate Reader. Caco-2 cell survival post treatment with natural products were plotted as percentage viability of natural product-treated cells in comparison to the DMSO-treated cells using GraphPad prism v. 8.0.
Fig 4 Cytotoxicity assay of natural products against Caco-2 cell line. The percentage of viable Caco-2 cells was measured as the ratio of average absorbance of each sample relative to the negative control (DMSO). The absorbance values represent the mean of three samples of each natural product compound with error bars representing standard deviation values for the absorbance.

SMILES	MIC (C. difficile [1]) [µg/mL]	MIC50 (C. difficile [1]) [µg/mL]	MIC90 (C. difficile [1]) [µg/mL]	MIC (C. difficile [1]; ATCC43255, […]) [µg/mL]	MIC (C. difficile [1]; BAA1870, […]) [µg/mL]	MBC (C. difficile [2]; ATCC43255, […]) [µg/mL]	MBC (C. difficile [2]; BAA1870, […]) [µg/mL]	toxicity to Caco-2 cells (Caco-2 cells)	toxicity to Caco-2 cells (Caco-2 cells; […])	MIC (C. difficile [1]; ATCC43255) [µg/mL]	MIC (C. difficile [1]; BAA1870) [µg/mL]	bactericidal activity against C. difficile (C. difficile [2]; in words)
CCc1c(Cl)c(O)c(Cl)c(O)c1C(=O)O[C@H]1[C@H](O)[C@H](OC)[C@H](OC/C2=C\C=C\C[C@H](O)/C(C)=C/[C@H](CC)[C@@H](O[C@@H]3OC(C)(C)[C@@H](OC(=O)C(C)C)[C@H](O)[C@@H]3O)/C(C)=C/C(C)=C/C[C@@H]([C@@H](C)O)OC2=O)O[C@@H]1C [Fidaxomicin]	0.125 (≈ 0.118 µM)	0.06 (≈ 0.0567 µM)	0.125 (≈ 0.118 µM)	0.06 (≈ 0.0567 µM)	0.06 (≈ 0.0567 µM)	0.06 (≈ 0.0567 µM)	0.125 (≈ 0.118 µM)					
CO[C@H]1[C@H](O)C[C@@H](O[C@@H]2C[C@H](Oc3cc4cc5c(c(O)c4c(O)c3C)C(=O)[C@@H](O[C@H]3C[C@H](O[C@H]4C[C@H](O[C@H]6C[C@@](C)(O)[C@@H](OC(=O)C(C)C)[C@H](C)O6)[C@H](O)[C@@H](C)O4)[C@H](O)[C@@H](C)O3)[C@H]([C@H](OC)C(=O)[C@@H](O)[C@@H](C)O)C5)O[C@H](C)[C@H]2OC(C)=O)O[C@@H]1C [NP-003875]	0.015 (≈ 0.0124 µM)	0.03 (≈ 0.0248 µM)	0.03 (≈ 0.0248 µM)			0.03 (≈ 0.0248 µM)	0.03 (≈ 0.0248 µM)	did not exhibit toxicity	non-toxic	0.03 (≈ 0.0248 µM)	0.03 (≈ 0.0248 µM)	bactericidal activity
CN[C@H](CC(C)C)C(=O)N[C@H]1C(=O)N[C@@H](CC(N)=O)C(=O)N[C@H]2C(=O)N[C@H]3C(=O)N[C@H](C(=O)N[C@H](C(=O)O)c4cc(O)cc(O)c4-c4cc3ccc4O)[C@H](O)c3ccc(c(Cl)c3)Oc3cc2cc(c3O[C@@H]2O[C@H](CO)[C@@H](O)[C@H](O)[C@H]2O[C@H]2C[C@](C)(N)[C@H](O)[C@H](C)O2)Oc2ccc(cc2Cl)[C@H]1O [Vancomycin]		0.5 (≈ 0.345 µM)	1 (≈ 0.69 µM)	1 (≈ 0.69 µM)	1 (≈ 0.69 µM)	1 (≈ 0.69 µM)	4 (≈ 2.76 µM)					

Reference: paper PMC9359557, “Discovery of a novel natural product inhibitor of Clostridioides difficile with potent activity in vitro and in vivo” (PLoS ONE, 2022)
